ChEMBL document CHEMBL3727348, “3-(aryl or heteroaryl) methyleneindolin-2-one derivatives as inhibitors of cancer stem cell pathway kinases for the treatment of cancer” (2014)

How the values were obtained:
Assay type in all cases: functional, cell-based
ACHN [1] = test: Cytotoxic activity against human ACHN bulk cells incubated for 72 hrs by Cell-titer-Glo luminescence assay
A549 [2] = test: Cytotoxic activity against human A549 bulk cells incubated for 72 hrs by Cell-titer-Glo luminescence assay; details: A549, 72 h
ACHN [3] = test: Cytotoxic activity against human ACHN cancer stem cells incubated for 72 hrs by Cell-titer-Glo luminescence assay
FaDu [4] = test: Cytotoxic activity against human FADU bulk cells incubated for 72 hrs by Cell-titer-Glo luminescence assay
FaDu [5] = test: Cytotoxic activity against human FADU cancer stem cells incubated for 72 hrs by Cell-titer-Glo luminescence assay
A549 [6] = test: Cytotoxic activity against human A549 cancer stem cells incubated for 72 hrs by Cell-titer-Glo luminescence assay; details: A549, 72 h

Row | SMILES | IC50 (ACHN [1]) [µM] | IC50 (A549 [2]) [µM] | IC50 (ACHN [3]) [µM] | IC50 (FaDu [4]) [µM] | IC50 (FaDu [5]) [µM] | IC50 (A549 [6]) [µM]
1 | CSc1cnc(-c2ccc3c(c2)/C(=C/c2[nH]c(C)cc2C)C(=O)N3)cn1 | 0.16 | 35.8 | 18.3 | – | – | –
2 | CCN(CC)CCNC(=O)c1c(C)[nH]c(/C=C2\C(=O)Nc3ccc(-c4cnc5cn[nH]c5c4)cc32)c1C | 2.74 | 3.24 | 10.8 | 1.49 | 0.16 | 26.4
3 | CCN(CC)CCNC(=O)c1c(C)[nH]c(/C=C2\C(=O)Nc3ccc(-c4cnccn4)cc32)c1C | 10.1 | 10.6 | 2.65 | 6.62 | 0.23 | 13.2
4 | COC(=O)c1c(C)[nH]c(/C=C2\C(=O)Nc3ccc(-c4csc(-c5ccncc5)n4)cc32)c1C | 12.6 | 9.61 | 6.16 | 18.6 | 6.74 | 4.8
5 | CCN(CC)CCNC(=O)c1c(C)[nH]c(/C=C2\C(=O)Nc3ccc(-c4cccc(C#N)c4C)cc32)c1C | 5.23 | 2.8 | 0.57 | 4.27 | 4.73 | 4.48
6 | CCN(CC)CCNC(=O)c1c(C)[nH]c(/C=C2\C(=O)Nc3ccc(-c4cnc(SC)cn4)cc32)c1C | 12.3 | 6.06 | – | 5.96 | – | 30
7 | CCN(CC)CCN1CCCc2[nH]c(/C=C3\C(=O)Nc4ccc(-c5csc(C6CCNCC6)n5)cc43)c(C)c2C1=O | – | 7.06 | 11.9 | 8.67 | – | –
8 | Cc1ccc(-c2nc(-c3ccc4c(c3)/C(=C/c3[nH]c(C)c(C(=O)NCCN5CCCC5)c3C)C(=O)N4)cs2)cc1 | 2.32 | 5.99 | 0.14 | 4.22 | 0.31 | 12.2
9 | CCN(CC)CCNC(=O)c1c(C)[nH]c(/C=C2\C(=O)Nc3cc(-c4cnc5ccccc5c4)ccc32)c1C | – | 15.8 | 1.07 | 12.9 | 2.83 | 11.6
10 | Cc1cc(C)c(/C=C2\C(=O)Nc3ccc(-c4ccncc4)cc32)[nH]1 | – | – | 6.95 | – | – | –
11 | CCN(CC)CCNC(=O)c1c(C)[nH]c(/C=C2\C(=O)Nc3ccc(-c4ncccn4)cc32)c1C | 3.5 | 15.4 | 1.15 | 6.02 | 0.09 | 18
12 | CCN(CC)CCNC(=O)c1c(C)[nH]c(/C=C2\C(=O)Nc3ccc(-c4cc(-c5ccccc5)ccn4)cc32)c1C | 2.41 | 1.5 | 0.9 | 2.58 | 9.67 | 2
13 | CCN(CC)CCNC(=O)c1c(C)[nH]c(/C=C2\C(=O)Nc3ccc(-c4csc(-c5ccc(C)cc5)n4)cc32)c1C | – | – | 0.69 | – | 3.4 | 10.5
14 | O=C1Nc2ccc(-c3csc(-c4ccccc4)n3)cc2/C1=C/c1[nH]cc2ccccc12 | – | – | 4.08 | – | 5.04 | –
15 | Cc1cc(C)c(/C=C2\C(=O)Nc3ccc(-c4cnc5ccccn45)cc32)[nH]1 | 25.2 | 16.6 | – | 11.4 | 17 | 20.2
16 | Cc1ccc(-c2ccc3c(c2)/C(=C/c2[nH]c(C)cc2C)C(=O)N3)cn1 | 24.9 | 25.8 | 0.01 | – | – | –
17 | O=C1Nc2ccc(-c3csc(-c4ccccc4)n3)cc2/C1=C/c1cc2c([nH]1)CCCC2 | 34.6 | – | 2.52 | 20.2 | 4.09 | 1.42
18 | Cc1ccc(-c2ccc3c(c2)NC(=O)/C3=C\c2[nH]c(C)cc2C)cn1 | 22 | – | 4.55 | – | 3.61 | 23.7
19 | CCN(CC)CCNC(=O)c1c(C)[nH]c(/C=C2\C(=O)Nc3cc(-c4ccc(-c5ccccc5)nc4)ccc32)c1C | – | 14.8 | 0.21 | – | 1.12 | 3.59
20 | CCOC(=O)c1cc(C)c(/C=C2\C(=O)Nc3ccc(-c4csc(-c5ccccc5)n4)cc32)[nH]1 | 0.39 | 40 | – | 13.5 | – | 13.2
21 | CCN(CC)CCNC(=O)c1c(C)[nH]c(/C=C2\C(=O)Nc3cc(-c4nccc5ccccc45)ccc32)c1C | 6.51 | 7.14 | 1.91 | 9.12 | 24.4 | –
22 | Cc1ccc(-c2ccc3c(c2)/C(=C/c2[nH]c(C)cc2C)C(=O)N3)nc1 | – | – | 0.05 | 37.3 | – | –
23 | CCN(CC)CCNC(=O)c1c(C)[nH]c(/C=C2\C(=O)Nc3ccc(-c4csc(C5CCNC5)n4)cc32)c1C (configuration not stated) | 6.75 | 0.72 | – | 2.42 | – | 32.5
24 | Cc1cc(C)c(/C=C2\C(=O)Nc3cc(-c4cnc5ccccc5n4)ccc32)[nH]1 | – | 18.2 | 2.54 | – | 8.8 | 5.83
25 | O=C1Nc2ccc(-c3csc(-c4ccncc4)n3)cc2/C1=C/c1cc2c([nH]1)CCCC2 | 37.8 | – | – | – | – | 0.8

Row | SMILES | IC50 (ACHN [1]) [µM] | IC50 (A549 [2]) [µM] | IC50 (ACHN [3]) [µM] | IC50 (FaDu [4]) [µM] | IC50 (FaDu [5]) [µM] | IC50 (A549 [6]) [µM]
26 | CCN(CC)CCNC(=O)c1c(C)[nH]c(/C=C2\C(=O)Nc3ccc(-c4csc(-c5ccc(CCC(=O)O)cc5)n4)cc32)c1C | – | – | – | – | 4.88 | 4.21
27 | Cc1cc(C)c(/C=C2\C(=O)Nc3ccc(-c4cccc5ncccc45)cc32)[nH]1 | 13.2 | 11.1 | – | 13.4 | 13.1 | 40
28 | CCN(CC)CCNC(=O)c1c(C)[nH]c(/C=C2\C(=O)Nc3ccc(-c4csc(C(=O)O)c4)cc32)c1C | 7.74 | 7.79 | 1.28 | – | 14.1 | 14.1
29 | Cc1[nH]c(/C=C2\C(=O)Nc3ccc(-c4cnn(-c5ccccc5)c4)cc32)c(C)c1C(=O)N1CCN(C)CC1 | 3.4 | 6.91 | – | 3.62 | 0.31 | 4.49
30 | Cc1[nH]c(/C=C2\C(=O)Nc3ccc(-c4cnn(-c5ccccn5)c4)cc32)c(C)c1C(=O)N1CCN(C)CC1 | – | 18.9 | – | 3.67 | 0.24 | 11.7
31 | CCN(CC)CCNC(=O)c1c(C)[nH]c(/C=C2\C(=O)Nc3ccc(-c4ccc5ccccc5n4)cc32)c1C | 2.74 | 1.8 | 0.33 | 0.92 | – | 1.51
32 | Cc1cc(C)c(/C=C2\C(=O)Nc3ccc(-c4ccccn4)cc32)[nH]1 | – | – | 0.02 | – | – | –
33 | CCN(CC)CCNC(=O)c1c(C)[nH]c(/C=C2\C(=O)Nc3ccc(-c4csc(-c5cccc(CCC(=O)O)c5)n4)cc32)c1C | 1.27 | – | – | 1.77 | 4.88 | 4.21
34 | Cc1cc(C)c(/C=C2\C(=O)Nc3ccc(-c4csc(-n5cccn5)n4)cc32)[nH]1 | 9 | 9.76 | – | 20.8 | 27.2 | 16.2
35 | Cc1cc(C)c(/C=C2\C(=O)Nc3ccc(-c4cnc5cccnn45)cc32)[nH]1 | – | 12.5 | – | 5.23 | 1.55 | 8.66
36 | CCN(CC)CCNC(=O)c1c(C)[nH]c(/C=C2\C(=O)Nc3ccc(-c4n[nH]c5c(N)cccc45)cc32)c1C | 12 | 11.6 | 30.9 | 7.09 | 28.4 | –
37 | O=C1Nc2ccc(-c3csc(-c4ccncc4)n3)cc2/C1=C/c1ncc[nH]1 | 0.29 | 14.8 | 9.21 | 3.42 | – | 2.6
38 | Cc1cc(C)c(/C=C2\C(=O)Nc3ccc(-c4ncccn4)cc32)[nH]1 | 25.3 | – | – | 26.1 | 25.2 | 28.7
39 | Cc1cc(C)c(/C=C2\C(=O)Nc3ccc(-c4ncccc4C)cc32)[nH]1 | 7.95 | 22.4 | 0.01 | – | 41.1 | –
40 | Cc1cc(C)c(/C=C2\C(=O)Nc3ccc(-c4cc(-c5ccccc5)ccn4)cc32)[nH]1 | – | 13.8 | – | 22.4 | – | 35.7
41 | CCN(CC)CCNC(=O)c1c(C)[nH]c(/C=C2\C(=O)Nc3ccc(-c4cnc(-c5ccccc5)cn4)cc32)c1C | 25.8 | 16.9 | – | 17.5 | 39.1 | 43.6
42 | O=C1Nc2ccc(-c3csc(-c4ccccc4)n3)cc2/C1=C/c1cnc[nH]1 | 8.74 | 11.2 | – | 6.14 | 6.32 | 0.9
43 | CCN(CC)CCNC(=O)c1c(C)[nH]c(/C=C2\C(=O)Nc3cc(-c4csc(-c5ccccc5)n4)ccc32)c1C | – | – | 0.19 | 1.8 | 0.6 | 3.73
44 | CCOC(=O)c1[nH]c(/C=C2\C(=O)Nc3ccc(-c4csc(-c5ccccc5)n4)cc32)c2c1CCCC2 | 0.83 | – | 1.6 | – | 2.91 | –
45 | Cc1cc(C)c(/C=C2\C(=O)Nc3ccc(-c4cnc(-c5ccccc5)cn4)cc32)[nH]1 | – | – | 6.8 | – | – | –
46 | CCN(CC)CCNC(=O)c1c(C)[nH]c(/C=C2\C(=O)Nc3cc(-c4ccc5ccccc5n4)ccc32)c1C | – | 16.4 | 1.36 | 16.6 | 5.15 | 6.59
47 | CCN(CC)CCNC(=O)c1c(C)[nH]c(/C=C2\C(=O)Nc3cc(-c4ccc(-c5ccccc5)cn4)ccc32)c1C | – | – | 2.88 | 19.8 | 1.18 | 4.93
48 | Cc1[nH]c(/C=C2\C(=O)Nc3ccc(-c4csc(-c5ccccc5)n4)cc32)c(C)c1S(=O)(=O)N1CCCC1 | 12.6 | 2.86 | 5.05 | 5.48 | 6.56 | –
49 | Cc1ccc(-c2nc(-c3ccc4c(c3)/C(=C/c3[nH]c(C)c(C(=O)N5CCN(C)CC5)c3C)C(=O)N4)cs2)cc1 | 4.25 | 8.55 | – | 7.87 | 1.98 | 0.45
50 | Cc1cc(C)c(/C=C2\C(=O)Nc3ccc(-c4cnsc4)cc32)[nH]1 | 42.8 | – | 17.1 | 26.7 | 43.4 | –
